Laboratory results taken from ChEMBL document CHEMBL4002623, “Synthesis and in vitro activity of dicationic indolyl diphenyl ethers as novel potent antibiotic agents against drug-resistant bacteria” (Bioorg Med Chem Lett, 2017).
Converted amounts (≈) assume the structure as drawn.

Tests used:
[1] = tested on: Salmonella typhi; experiment: Antibacterial activity against Salmonella typhi H901 by agar dilution method; assay type: functional, Salmonella enterica subsp. enterica serovar Typhi; conditions: Salmonella enterica
[2] = tested on: Klebsiella aerogenes; experiment: Antibacterial activity against Enterobacter aerogenes 45102 by agar dilution method; assay type: functional
[3] = tested on: Enterococcus faecalis; experiment: Antibacterial activity against vancomycin-sensitive Enterococcus faecalis 09-8 by agar dilution method; assay type: functional
[4] = tested on: Pseudomonas aeruginosa; experiment: Antibacterial activity against Pseudomonas aeruginosa PAO1 by agar dilution method; assay type: functional
[5] = tested on: Staphylococcus epidermidis; experiment: Antibacterial activity against methicillin-sensitive Staphylococcus epidermidis 09-9 by agar dilution method; assay type: functional
[6] = tested on: Serratia marcescens; experiment: Antibacterial activity against Serratia marcescens 41002 by agar dilution method; assay type: functional
[7] = tested on: Enterococcus faecalis; experiment: Antibacterial activity against vancomycin-sensitive Enterococcus faecalis ATCC 29212 by agar dilution method; assay type: functional
[8] = tested on: Enterococcus faecium; experiment: Antibacterial activity against vancomycin-resistant Enterococcus faecium ATCC 700221 by agar dilution method; assay type: functional
[9] = tested on: Enterobacter cloacae; experiment: Antibacterial activity against Enterobacter cloacae 45301 by agar dilution method; assay type: functional
[10] = tested on: Escherichia coli; experiment: Antibacterial activity against extended-spectrum beta-lactamase-negative Escherichia coli 1515 by agar dilution method; assay type: functional
[11] = tested on: Klebsiella pneumoniae; experiment: Antibacterial activity against extended-spectrum beta-lactamase-positive Klebsiella pneumoniae 09-25 by agar dilution method; assay type: functional
[12] = tested on: Klebsiella pneumoniae; experiment: Antibacterial activity against extended-spectrum beta-lactamase-negative Klebsiella pneumoniae 09-8 by agar dilution method; assay type: functional
[13] = tested on: Staphylococcus aureus; experiment: Antibacterial activity against methicillin-sensitive Staphylococcus aureus 15 by agar dilution method; assay type: functional
[14] = tested on: Proteus vulgaris; experiment: Antibacterial activity against Proteus vulgaris ATCC 29905 by agar dilution method; assay type: functional
[15] = tested on: Proteus mirabilis; experiment: Antibacterial activity against Proteus mirabilis 09-1 by agar dilution method; assay type: functional
[16] = tested on: Enterococcus faecium; experiment: Antibacterial activity against vancomycin-sensitive Enterococcus faecium 09-10 by agar dilution method; assay type: functional
[17] = tested on: Enterococcus faecium; experiment: Antibacterial activity against vancomycin-resistant Enterococcus faecium 05-8 by agar dilution method; assay type: functional
[18] = tested on: Morganella morganii; experiment: Antibacterial activity against Morganella morganii ATCC 25830 by agar dilution method; assay type: functional
[19] = tested on: Staphylococcus aureus; experiment: Antibacterial activity against methicillin-resistant Staphylococcus aureus 09-13 by agar dilution method; assay type: functional
[20] = tested on: Escherichia coli; experiment: Antibacterial activity against extended-spectrum beta-lactamase-negative Escherichia coli ATCC 25922 by agar dilution method; assay type: functional
[21] = tested on: Acinetobacter calcoaceticus; experiment: Antibacterial activity against Acinetobacter calcoaceticus ATCC 19606 by agar dilution method; assay type: functional
[22] = tested on: Escherichia coli; experiment: Antibacterial activity against extended-spectrum beta-lactamase-positive Escherichia coli 09-1 by agar dilution method; assay type: functional
[23] = Cytotoxicity against HEK293T cells after 48 hrs by MTS assay; assay type: cell-based, HEK-293T; conditions: human
[24] = tested on: Klebsiella pneumoniae; experiment: Antibacterial activity against extended-spectrum beta-lactamase-negative Klebsiella pneumoniae 7 by agar dilution method; assay type: functional
[25] = tested on: Pseudomonas aeruginosa; experiment: Antibacterial activity against Pseudomonas aeruginosa ATCC 27853 by agar dilution method; assay type: functional
[26] = tested on: Providencia rettgeri; experiment: Antibacterial activity against Providencia rettgeri ATCC 31052 by agar dilution method; assay type: functional
[27] = tested on: Klebsiella pneumoniae; experiment: Antibacterial activity against extended-spectrum beta-lactamase-positive Klebsiella pneumoniae ATCC 700603 by agar dilution method; assay type: functional
[28] = tested on: Escherichia coli; experiment: Antibacterial activity against extended-spectrum beta-lactamase-negative Escherichia coli 09-20 by agar dilution method; assay type: functional
[29] = tested on: Staphylococcus aureus; experiment: Antibacterial activity against methicillin-resistant Staphylococcus aureus ATCC 33591 by agar dilution method; assay type: functional
[30] = tested on: Enterococcus faecalis; experiment: Antibacterial activity against vancomycin-resistant Enterococcus faecalis ATCC 51299 by agar dilution method; assay type: functional
[31] = tested on: Pseudomonas aeruginosa; experiment: Antibacterial activity against Pseudomonas aeruginosa 09-14 by agar dilution method; assay type: functional
[32] = tested on: Enterococcus faecalis; experiment: Antibacterial activity against vancomycin-resistant Enterococcus faecalis 09-9 by agar dilution method; assay type: functional
[33] = tested on: Staphylococcus epidermidis; experiment: Antibacterial activity against methicillin-sensitive Staphylococcus epidermidis ATCC 12228 by agar dilution method; assay type: functional
[34] = tested on: Staphylococcus aureus; experiment: Antibacterial activity against methicillin-sensitive Staphylococcus aureus 09-6 by agar dilution method; assay type: functional
[35] = tested on: Staphylococcus epidermidis; experiment: Antibacterial activity against methicillin-resistant Staphylococcus epidermidis 09-3 by agar dilution method; assay type: functional
[36] = tested on: Klebsiella pneumoniae; experiment: Antibacterial activity against Klebsiella pneumoniae ATCC BAA-2146 expressing NDM-1 by agar dilution method; assay type: functional
[37] = tested on: Citrobacter freundii; experiment: Antibacterial activity against Citrobacter freundii ATCC 43864 by agar dilution method; assay type: functional
[38] = tested on: Staphylococcus aureus; experiment: Antibacterial activity against methicillin-sensitive Staphylococcus aureus ATCC 29213 by agar dilution method; assay type: functional

| SMILES | MIC [1] [µg/mL] | MIC [2] [µg/mL] | MIC [3] [µg/mL] | MIC [4] [µg/mL] | MIC [5] [µg/mL] | MIC [6] [µg/mL] | MIC [7] [µg/mL] | MIC [8] [µg/mL] | MIC [9] [µg/mL] | MIC [10] [µg/mL] | MIC [11] [µg/mL] | MIC [12] [µg/mL] | MIC [13] [µg/mL] | MIC [14] [µg/mL] | MIC [15] [µg/mL] | MIC [16] [µg/mL] | MIC [17] [µg/mL] | MIC [18] [µg/mL] | MIC [19] [µg/mL] | MIC [20] [µg/mL] | further results |
| --- | --- | --- | --- | --- | --- | --- | --- | --- | --- | --- | --- | --- | --- | --- | --- | --- | --- | --- | --- | --- | --- |
| N=C(NC1CCC1)c1ccc2cc(-c3ccc(Oc4ccc(-c5cc6ccc(C(=N)NC7CCC7)cc6[nH]5)cc4)cc3)[nH]c2c1 | > 128 | > 128 | 64 (≈ 108 µM) | > 128 | 8 (≈ 13.5 µM) | > 128 | 64 (≈ 108 µM) | 32 (≈ 54 µM) | > 128 | > 128 | > 128 | > 128 | 64 (≈ 108 µM) | > 128 | > 128 | 64 (≈ 108 µM) | > 128 | > 128 | 64 (≈ 108 µM) | > 128 | MIC [21]: > 128 µg/mL; MIC [22]: > 128 µg/mL; CC50 at 48 h [23]: 32.6 µg/mL (≈ 55 µM); MIC [24]: > 128 µg/mL; MIC [25]: > 128 µg/mL; MIC [26]: > 128 µg/mL; MIC [27]: > 128 µg/mL; MIC [28]: > 128 µg/mL; MIC [29]: 64 µg/mL (≈ 108 µM); MIC [30]: 64 µg/mL (≈ 108 µM); MIC [31]: > 128 µg/mL; MIC [32]: 64 µg/mL (≈ 108 µM); MIC [33]: 8 µg/mL (≈ 13.5 µM); MIC [34]: 64 µg/mL (≈ 108 µM); MIC [35]: 16 µg/mL (≈ 27 µM); MIC [36]: > 128 µg/mL; MIC [37]: > 128 µg/mL; MIC [38]: 64 µg/mL (≈ 108 µM) |
| CCNC(=N)c1ccc2cc(-c3ccc(Oc4ccc(-c5cc6ccc(C(=N)NCC)cc6[nH]5)cc4)cc3)[nH]c2c1 | 64 (≈ 118 µM) | 64 (≈ 118 µM) | 2 (≈ 3.7 µM) | > 128 | 1 (≈ 1.85 µM) | 128 (≈ 237 µM) | 2 (≈ 3.7 µM) | 2 (≈ 3.7 µM) | 64 (≈ 118 µM) | 64 (≈ 118 µM) | 64 (≈ 118 µM) | 64 (≈ 118 µM) | 1 (≈ 1.85 µM) | 128 (≈ 237 µM) | 128 (≈ 237 µM) | 16 (≈ 29.6 µM) | 4 (≈ 7.4 µM) | 128 (≈ 237 µM) | 1 (≈ 1.85 µM) | 64 (≈ 118 µM) | MIC [21]: > 128 µg/mL; MIC [22]: 64 µg/mL (≈ 118 µM); CC50 at 48 h [23]: 36.3 µg/mL (≈ 67.1 µM); MIC [24]: 128 µg/mL (≈ 237 µM); MIC [25]: 128 µg/mL (≈ 237 µM); MIC [26]: 128 µg/mL (≈ 237 µM); MIC [27]: 64 µg/mL (≈ 118 µM); MIC [28]: 64 µg/mL (≈ 118 µM); MIC [29]: 1 µg/mL (≈ 1.85 µM); MIC [30]: 2 µg/mL (≈ 3.7 µM); MIC [31]: 128 µg/mL (≈ 237 µM); MIC [32]: 1 to 8 µg/mL (≈ 1.85 to 14.8 µM); MIC [33]: 1 µg/mL (≈ 1.85 µM); MIC [34]: 2 µg/mL (≈ 3.7 µM); MIC [35]: 1 µg/mL (≈ 1.85 µM); MIC [36]: 128 µg/mL (≈ 237 µM); MIC [37]: 128 µg/mL (≈ 237 µM); MIC [38]: 2 µg/mL (≈ 3.7 µM) |
